Results reported in PMC7296983 (Journal of medicinal chemistry, 2019).
Values belong to the molecule of their own block, whether it stands above or below them.

Experiments:
NNMT [1] = settings: cited from earlier work
NNMT [2] = biological target: T1, NNMT (Homo sapiens, UniProt P40261); assay: SAH hydrolase; type: biochemical; settings: for activity compared to respective parent compound 1g, 1h and 3a: aspartic replaced by glutamic amino acid portion
T1 sequence (P40261 1-264): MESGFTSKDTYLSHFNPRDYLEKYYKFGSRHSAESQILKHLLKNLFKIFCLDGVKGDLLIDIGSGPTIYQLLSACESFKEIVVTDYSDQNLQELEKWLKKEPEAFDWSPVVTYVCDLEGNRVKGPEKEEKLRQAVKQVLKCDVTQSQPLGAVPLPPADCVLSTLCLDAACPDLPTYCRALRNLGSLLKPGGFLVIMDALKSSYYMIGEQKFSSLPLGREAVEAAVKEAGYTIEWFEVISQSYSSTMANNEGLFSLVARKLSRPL

NNMT [3] = settings: cited from earlier work; remark: listed apart in the source
NTMT1 = biological target: T2, NTMT1 (Homo sapiens, UniProt Q9BV86); assay: Selectivity assay, SAHH-coupled fluorescence; type: biochemical; settings: read-out: Enzyme activity (%)
T2 sequence (Q9BV86 1-223): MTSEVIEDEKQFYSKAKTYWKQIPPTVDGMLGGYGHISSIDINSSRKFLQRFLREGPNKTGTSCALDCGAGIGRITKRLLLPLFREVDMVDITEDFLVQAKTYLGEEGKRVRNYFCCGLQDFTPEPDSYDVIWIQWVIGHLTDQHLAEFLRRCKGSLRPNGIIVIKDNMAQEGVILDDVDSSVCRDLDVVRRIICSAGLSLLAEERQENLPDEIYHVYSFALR

TbPRMT7 = TbPRMT7 (Trypanosoma brucei brucei, UniProt Q582G4); assay: biochemical
TbPRMT7, sequence (Q582G4 whole entry): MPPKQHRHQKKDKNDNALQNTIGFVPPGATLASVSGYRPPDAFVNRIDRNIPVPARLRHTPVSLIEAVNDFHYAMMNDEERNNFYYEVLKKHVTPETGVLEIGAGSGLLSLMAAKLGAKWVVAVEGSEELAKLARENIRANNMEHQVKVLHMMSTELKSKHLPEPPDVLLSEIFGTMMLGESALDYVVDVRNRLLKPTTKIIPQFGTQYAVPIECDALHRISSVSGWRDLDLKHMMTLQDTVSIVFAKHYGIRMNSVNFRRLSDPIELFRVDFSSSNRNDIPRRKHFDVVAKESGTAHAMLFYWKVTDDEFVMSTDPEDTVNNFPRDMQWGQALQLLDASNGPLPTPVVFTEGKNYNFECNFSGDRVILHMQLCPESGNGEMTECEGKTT

PRMT1 = PRMT1 (Homo sapiens, UniProt Q99873); assay: Selectivity assay, SAHH-coupled fluorescence; type: biochemical
PRMT1, sequence (Q99873 whole entry, species assumed): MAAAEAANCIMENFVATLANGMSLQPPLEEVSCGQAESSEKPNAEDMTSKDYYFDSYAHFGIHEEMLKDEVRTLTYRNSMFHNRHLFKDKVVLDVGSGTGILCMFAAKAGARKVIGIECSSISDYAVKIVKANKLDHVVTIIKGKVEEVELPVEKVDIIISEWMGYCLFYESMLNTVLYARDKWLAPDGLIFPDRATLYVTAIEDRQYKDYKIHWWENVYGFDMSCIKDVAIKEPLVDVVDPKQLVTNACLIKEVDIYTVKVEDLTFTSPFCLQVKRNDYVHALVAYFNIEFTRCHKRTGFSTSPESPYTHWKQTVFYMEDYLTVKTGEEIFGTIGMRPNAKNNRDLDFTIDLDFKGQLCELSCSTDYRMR

NNMT [4] = settings: cited from earlier work; remark: listed apart in the source
HCT116 = type: in vitro ADME; settings: human, 100 μM
SAH hydrolase = substrate: C[S+](CC[C@H](N)C(=O)[O-])C[C@H]1O[C@@H](n2cnc3c(N)ncnc32)[C@H](O)[C@@H]1O; assay: SAH hydrolase; type: biochemical, human; settings: other: substrate and cofactor, Figure S1; pH 7.5; 37.0 °C
[5] = substrate: NC(=O)c1cccnc1; assay: purified protein, by the assay type; settings: other: substrate and cofactor, Figure S1; pH 7.5; 37.0 °C

Molecule: NC(=O)c1cccc(CCN(CCC[C@H](N)C(=O)O)C[C@H]2O[C@@H](n3cnc4c(N)ncnc43)[C@H](O)[C@@H]2O)c1 [MS2734]
fold higher inhibitory activity than MS 2756 (NNMT [1]; aspartic amino acid replaced with glutamic acid in the SAM portion): over 10 fold | activity of previously reported bisubstrate analogs (NNMT [1]): moderate activities at μM range

loss of activity compared to 2a (NNMT [2]): ~500 fold
Molecule: NC(=O)c1cccc(C#CCNC[C@H]2O[C@@H](n3cnc4c(N)ncnc43)[C@H](O)[C@@H]2O)c1 [Compound 2d, 3-(3-((((2R,3S,4R,5R)-5-(6-amino-9H-purin-9-yl)-3,4-dihydroxytetrahydrofuran-2-yl)methyl)amino)prop-1-yn-1-yl)benzamide]

decrease of inhibitory activity compared with 1a (NNMT [2]): marginally affected the inhibition
Molecule: Cc1ccc(CCCN(CC[C@H](N)C(=O)O)C[C@H]2O[C@@H](n3cnc4c(N)ncnc43)[C@H](O)[C@@H]2O)cc1C(N)=O [Compound 1c, (S)-2-amino-4-((((2R,3S,4R,5R)-5-(6-amino-9H-purin-9-yl)-3,4dihydroxytetrahydrofuran-2-yl)methyl)(3-(3-carbamoyl-4methylphenyl)propyl)amino)butanoic acid]

loss of activity compared to 2a (NNMT [2]): 7 fold
Molecule: COc1ccc(C(N)=O)cc1C#CCN(CC[C@H](N)C(=O)O)C[C@H]1O[C@@H](n2cnc3c(N)ncnc32)[C@H](O)[C@@H]1O [Compound 2b, (S)-2-amino-4-((((2R,3S,4R,5R)-5-(6-amino-9H-purin-9-yl)-3,4-dihydroxytetrahydrofuran-2-yl)methyl)(3-(5-carbamoyl-2-methoxyphenyl)prop-2-yn-1-yl)amino)butanoic acid]

Molecule: c1ccc2cnccc2c1 [isoquinoline]
Km relative to nicotinamide (NNMT [3]): ~3 fold

Molecule: Nc1ncnc2c1ncn2[C@@H]1O[C@H](CN(CCCc2ccc3ccccc3c2)CCC[C@H](N)C(=O)O)[C@@H](O)[C@H]1O [Compound 1f, (S)-2-amino-5-((((2R,3S,4R,5R)-5-(6-amino-9H-purin-9-yl)-3,4-dihydroxytetrahydrofuran-2-yl)methyl)(3-(naphthalen-2-yl)propyl)amino)pentanoic acid]
activity compared to respective parent compound 1g, 1h and 3a (NNMT [2]): either comparable or 3-fold decreased activities

Molecule: NC(=O)c1cccc(CCN(CC[C@H](N)C(=O)O)C[C@H]2O[C@@H](n3cnc4c(N)ncnc43)[C@H](O)[C@@H]2O)c1 [MS2756]
activity of previously reported bisubstrate analogs (NNMT [1]): moderate activities at μM range

Molecule: Nc1ncnc2c1ncn2[C@@H]1O[C@H](CN(CCCc2cccc3ccccc23)CCC[C@H](N)C(=O)O)[C@@H](O)[C@H]1O [Compound 1e, (S)-2-amino-5-((((2R,3S,4R,5R)-5-(6-amino-9H-purin-9-yl)-3,4-dihydroxytetrahydrofuran-2-yl)methyl)(3-(naphthalen-1-yl)propyl)amino)pentanoic acid]
activity compared to respective parent compound 1g, 1h and 3a (NNMT [2]): either comparable or 3-fold decreased activities

Molecule: NC(=O)c1cccc(C#CCN(CC[C@H](N)C(=O)O)C[C@H]2O[C@@H](n3cnc4c(N)ncnc43)[C@H](O)[C@@H]2O)c1 [Compound 2a, (S)-2-amino-4-((((2R,3S,4R,5R)-5-(6-amino-9H-purin-9-yl)-3,4-dihydroxytetrahydrofuran-2-yl)methyl)(3-(3-carbamoylphenyl)prop-2-yn-1-yl)amino)butanoic acid]
remaining activity at 3.7 µM (NTMT1): 64% | IC50 (TbPRMT7): > 33 µM | IC50 (PRMT1): > 100 µM

Molecule: NC(=O)c1cccc(C#C[C@@H](CC[C@H](N)C(=O)O)C[C@H]2O[C@@H](n3cnc4c(N)ncnc43)[C@H](O)[C@@H]2O)c1 [NS1]
Ki (NNMT [4]): ~0.0005 µM

decrease of inhibitory activity compared with 1a (NNMT [2]): 70 fold
Molecule: NC(=O)c1cccc(CCCN(CCC[C@H](N)C(=O)O)C[C@H]2O[C@@H](n3cnc4c(N)ncnc43)[C@H](O)[C@@H]2O)c1 [Compound 1d, (S)-2-amino-5-((((2R,3S,4R,5R)-5-(6-amino-9H-purin-9-yl)-3,4-dihydroxytetrahydrofuran-2-yl)methyl)(3-(3-arbamoylphenyl)propyl)amino)pentanoic acid]

decrease of inhibitory activity compared with 1a (NNMT [2]): about 700 fold
Molecule: COC(=O)c1cccc(CCCN(CC[C@H](N)C(=O)O)C[C@H]2O[C@@H](n3cnc4c(N)ncnc43)[C@H](O)[C@@H]2O)c1 [Compound 1j, (S)-2-amino-4-((((2R,3S,4R,5R)-5-(6-amino-9H-purin-9-yl)-3,4-dihydroxytetrahydrofuran-2-yl)methyl)(3-(3-(methoxycarbonyl)phenyl)propyl)amino)butanoic acid]

loss of activity compared to 2a (NNMT [2]): comparable activity
Molecule: Cc1ccc(C#CCN(CC[C@H](N)C(=O)O)C[C@H]2O[C@@H](n3cnc4c(N)ncnc43)[C@H](O)[C@@H]2O)cc1C(N)=O [Compound 2c, (S)-2-amino-4-((((2R,3S,4R,5R)-5-(6-amino-9H-purin-9-yl)-3,4-dihydroxytetrahydrofuran-2-yl)methyl)(3-(3-carbamoyl-4-methylphenyl)prop-2-yn-1-yl)amino)butanoic acid]

Molecule: Cc1ccncc1C(N)=O [4-methylnicotinamide]
Km relative to nicotinamide (NNMT [3]): comparable to nicotinamide

Molecule: NC(=O)c1cccc(CCCCN(CCC[C@H](N)C(=O)O)C[C@H]2O[C@@H](n3cnc4c(N)ncnc43)[C@H](O)[C@@H]2O)c1 [Compound 3b, (S)-2-amino-5-((((2R,3S,4R,5R)-5-(6-amino-9H-purin-9-yl)-3,4-dihydroxytetrahydrofuran-2-yl)methyl)(4-(3-carbamoylphenyl)butyl)amino)pentanoic acid]
activity compared to respective parent compound 1g, 1h and 3a (NNMT [2]): either comparable or 3-fold decreased activities

Molecule: c1ccc2ncccc2c1 [Quinoline]
Km relative to nicotinamide (NNMT [3]): comparable to nicotinamide

Molecule: NC(=O)c1cccc(C#CCN(CC[C@H](N)C(=O)O)C[C@H]2O[C@@H](n3cnc4c(N)ncnc43)[C@H](O)[C@@H]2O)c1 [Compound 2a]
cell permeability (MS detection of cellular levels) (HCT116): limited permeability

Molecule: NC(=O)c1cccc(CCCN(CC[C@H](N)C(=O)O)C[C@H]2O[C@@H](n3cnc4c(N)ncnc43)[C@H](O)[C@@H]2O)c1 [Compound 1a]
cell permeability (MS detection of cellular levels) (HCT116): barely exhibited enhanced cell permeability

decrease of inhibitory activity compared with 1a (NNMT [2]): more than 3 fold
Molecule: Cc1ccc(C(N)=O)cc1CCCN(CC[C@H](N)C(=O)O)C[C@H]1O[C@@H](n2cnc3c(N)ncnc32)[C@H](O)[C@@H]1O [Compound 1b, (S)-2-amino-4-((((2R,3S,4R,5R)-5-(6-amino-9H-purin-9-yl)-3,4dihydroxytetrahydrofuran-2-yl)methyl)(3-(5-carbamoyl-2methylphenyl)propyl)amino)butanoic acid]

B1: NNMT (Homo sapiens) (protein)
chain: T1 sequence (P40261 1-264)
Km (SAH hydrolase): 10 µM | Km [5]: 10 µM
